The record followed here is ChEMBL document CHEMBL5576055, “Design, synthesis, and biological evaluation of chalcone acetamide derivatives against triple negative breast cancer” (Bioorg Med Chem Lett, 2024).

Structures are written as SMILES. pIC50: −log10 of the molar value. Active and inactive are the calls of the source. The rule behind the calls is not given here.

The test system of series [1] is MDA-MB-231. Nature of the series: Antiproliferative activity against human MDA-MB-231 cells assessed as inhibition of cell growth at 20 uM by SRB method relative to control. More on the design: scale not given: the % may be the effect or the level left. In kind it is functional. A general note: Sulforhodamine B stains cellular protein and so reports cell mass.
The subject of series [2] is MDA-MB-231. Nature of the series: Induction of apoptosis in human MDA-MB-231 cells assessed as reduction in Bcl-2 expression by Western blot analysis. Format: functional, cell-based. For orientation: In western blotting, separated proteins are transferred to a membrane and probed.
A short description of series [3]: Antiproliferative activity against HEK293 cells assessed as inhibition of cell growth measured after 48 hrs by SRB method. Format: toxicity, cell-based. The following applies: human.
Series [4] deals with MDA-MB-231. Nature of the series: Induction of ROS generation in human MDA-MB-231 cells measured after 48 hrs by DCFDA staining based fluorescent microscopic analysis. Format: functional, cell-based. The following applies: dose 4-16 µM.
A short description of series [5]: Selectivity index, ratio of IC50 for HEK293 cells to IC50 for human MCF7 cells. In kind it is toxicity. The following applies: HEK293 cells versus MCF7 cells, read-out: Ratio IC50.
The test system of series [6] is MCF7. Nature of the series: Antiproliferative activity against human MCF7 cells assessed as inhibition of cell growth at 20 uM by SRB method relative to control. In kind it is functional. Details: scale not given: the % may be the effect or the level left.
Series [7] deals with MDA-MB-231. The series can be described thus: Induction of apoptosis in human MDA-MB-231 cells assessed as increase in caspase-3 expression by Western blot analysis. In kind it is functional, cell-based.
The test system of series [8] is MDA-MB-231. Nature of the series: Inhibition of colony formation in human MDA-MB-231 cells incubated for 24 hrs. Format: functional, cell-based. The note with it: dose 4-16 µM.
Series [9] has as its system MCF7. Nature of the series: Antiproliferative activity against human MCF7 cells assessed as inhibition of cell growth measured after 48 hrs by SRB method. The following applies: MCF7, 48 h. Format: functional, cell-based.
In series [10] the test system is MDA-MB-468. Nature of the series: Antiproliferative activity against human MDA-MB-468 cells assessed as inhibition of cell growth at 20 uM by SRB method relative to control. Format: functional. More on the design: scale not given: the % may be the effect or the level left.
The test system of series [11] is A549. The series can be described thus: Antiproliferative activity against human A549 cells assessed as inhibition of cell growth at 20 uM by SRB method relative to control. Format: functional. Details: scale not given: the % may be the effect or the level left.
The subject of series [12] is MDA-MB-231. The series can be described thus: Induction of apoptosis in human MDA-MB-231 cells assessed as effect on bax/bcl-2 ratio by Western blot analysis. In kind it is functional, cell-based.
Series [13] has as its system MDA-MB-231. Nature of the series: Antiproliferative activity against human MDA-MB-231 cells assessed as inhibition of cell growth measured after 48 hrs by SRB method. In kind it is functional, cell-based. The following applies: MDA-MB-231, 48 h.
For series [14], the system named is MDA-MB-231. The series can be described thus: Induction of apoptosis in human MDA-MB-231 cells assessed as cell blebbing at 4 to 16 uM measured after 48 hrs by DAPI staining based fluorescent microscopic analysis. In kind it is functional. The note with it: dose 4-16 µM.
For series [15], the system named is MDA-MB-468. Nature of the series: Antiproliferative activity against human MDA-MB-468 cells assessed as inhibition of cell growth measured after 48 hrs by SRB method. In kind it is functional, cell-based. The following applies: MDA-MB-468, 48 h.
Series [16] concerns A549. The series can be described thus: Antiproliferative activity against human A549 cells assessed as inhibition of cell growth measured after 48 hrs by SRB method. Format: functional, cell-based. The note with it: A549, 48 h.
Series [17] concerns MDA-MB-231. Nature of the series: Inhibition of colony formation in human MDA-MB-231 cells assessed as reduction in colony size at 4 to 16 uM incubated for 24 hrs. In kind it is functional, cell-based. The following applies: dose 4-16 µM.
In series [18] the test system is MDA-MB-231. The series can be described thus: Induction of apoptosis in human MDA-MB-231 cells assessed as chromatin condensation at 4 to 16 uM measured after 48 hrs by DAPI staining based fluorescent microscopic analysis. In kind it is functional, cell-based. The following applies: dose 4-16 µM.
Series [19] deals with MDA-MB-231. The series can be described thus: Induction of apoptosis in human MDA-MB-231 cells assessed as upregulation of bax expression by Western blot analysis. In kind it is functional, cell-based.
The nature of series [20]: Selectivity index, ratio of IC50 for HEK293 cells to IC50 for human MDA-MB-231 cells. The following applies: HEK293 cells versus MDA-MB-231 cells, read-out: Ratio IC50. In kind it is toxicity.
In another series the test system is Cell membrane. The series can be described thus: Induction of mitochondrial membrane potential loss in human MDA-MB-231 cells assessed as reduction in fluorescence measured after 48 hrs by rhodamine-123 dye based fluorescence assay. The note with it: dose 4-16 µM.
Series [21] can be described thus: Selectivity index, ratio of IC50 for HEK293 cells to IC50 for human MDA-MB-468 cells. The following applies: HEK293 cells versus MDA-MB-468 cells, read-out: Ratio IC50. Format: toxicity.
The subject of series [22] is MDA-MB-231. Nature of the series: Inhibition of colony formation in human MDA-MB-231 cells assessed as reduction in number of colonies at 4 to 16 uM incubated for 24 hrs. In kind it is functional, cell-based. The note with it: dose 4-16 µM.
Series [23] relates to HCT-116. The series can be described thus: Antiproliferative activity against human HCT-116 cells assessed as inhibition of cell growth at 20 uM by SRB method relative to control. Format: functional. Details: scale not given: the % may be the effect or the level left.
The subject of series [24] is HCT-116. The series can be described thus: Antiproliferative activity against human HCT-116 cells assessed as inhibition of cell growth measured after 48 hrs by SRB method. In kind it is functional, cell-based. The note with it: HCT-116, 48 h.
Series [25] concerns MDA-MB-231. Nature of the series: Antiproliferative activity against human MDA-MB-231 cells. Format: functional, cell-based.

As usually defined, the IC50 is the concentration needed to halve the response being measured. Broadly, the pIC50 is −log10 of the IC50, conventionally taken in molar units. Regarding `COc1ccc(/C=C/C(=O)c2ccc(OCC(=O)N3CCCC3)cc2)cc1`, the Activity in the series on MDA-MB-231 [1] is approximately 60%; in the series with MDA-MB-231 [4], “Dose-Dependent Effect”; with MCF7 [6] it was approximately 60%; with MDA-MB-468 [10], approximately 60%; with A549 [11] it was approximately 60%; with Cell membrane it was “Dose-Dependent Effect”. The Activity in the series on HCT-116 [23] was approximately 60%. Besides, the outcome in the series with MDA-MB-231 [2], in the series with MDA-MB-231 [7], in the series with MDA-MB-231 [12], in the series on MDA-MB-231 [14], in the series on MDA-MB-231 [18] and in the series with MDA-MB-231 [19] was Active. Moreover, the concentration for half-maximal inhibition (IC50) at 48 h in series [3] was found to be 39.1 µM. Also, the selectivity ratio in series [5] turned out to be 2.41; in series [20], 4.14; in [21] it was 3.85. Besides, the inhibition result in the series on MDA-MB-231 [8] is “Dose-Dependent Effect”. Moreover, the pIC50 with MCF7 [9] is 4.79; with MDA-MB-231 [13], 5.03; in the series on MDA-MB-468 [15], 4.99; in the series on A549 [16] it was 4.77; in the series with HCT-116 [24], 4.74. Further, the inhibition result in the series on MDA-MB-231 [17] and in the series on MDA-MB-231 [22] was “Active” throughout.
In the series on MDA-MB-231 [25], `COc1cccc(C(=O)/C=C/c2ccc(N(CCCl)CCCl)cc2)c1` had a negative logarithm of the IC50 (pIC50) of 2.40.
With `COc1ccc(/C=C/C(=O)c2ccc(OCC(=O)Nc3ncccc3Cl)cc2)cc1`, the negative-log IC50 (pIC50) with MDA-MB-231 [13] is 4.62; in the series on MDA-MB-468 [15], 4.60; in the series on A549 [16], 4.45.
With `COc1ccc(/C=C/C(=O)c2ccc(OCC(=O)NCCc3ccccc3)cc2)cc1`, the 50% inhibitory concentration (IC50) at 48 h in series [3] was 23.4 µM.
Consider `COc1ccc(/C=C/C(=O)c2ccc(OCC(=O)N3CCCCC3)cc2)cc1`, for which the concentration for half-maximal inhibition (IC50) at 48 h in series [3] stood at 10.8 µM. The values for the negative logarithm of the IC50 (pIC50) with MCF7 [9] and in the series with HCT-116 [24] were 4.64 and 4.76, respectively.
Regarding `COc1ccc(/C=C/C(=O)c2ccc(OCC(=O)NCc3cc(OC)c(OC)c(OC)c3)cc2)cc1`, the IC50 at 48 h in series [3] was 15.2 µM. Moreover, the pIC50 in the series on HCT-116 [24] is 4.98.
As for `COc1ccc(/C=C/C(=O)c2ccc(OCC(=O)N3CCSCC3)cc2)cc1`, the pIC50 in the series on A549 [16] was 4.34; in the series with HCT-116 [24], 4.82.
Take `COc1ccc(/C=C/C(=O)c2ccc(OCC(=O)NC3CCCCC3)cc2)cc1`: the pIC50 in the series on HCT-116 [24] is 4.72.
